Data: patent US20240261236A1, “METHODS OF USING NMDA RECEPTOR ANTAGONISTS” (Seelos Therapeutics, Inc., priority 2021, published 2024)

How the values were obtained:
[1] = tested on: adults with major depressive disorder (MDD) who are at imminent risk of suicide; experiment: C-SSRS, Phase 2 Part 1; details: 90 mg IN+SOC; for C-SSRS score (yes or no) for suicidal ideation: 24 hours post-administration, baseline yes
[2] = Leung and Baillie 1986; cited from earlier work
[3] = tested on: adults with major depressive disorder (MDD) who are at imminent risk of suicide; experiment: MOAA/S sedation, Phase 2 Part 1
[4] = tested on: adults with major depressive disorder (MDD) who are at imminent risk of suicide; experiment: S-STS CMCM Risk of Suicide at Within the Next 7 Days; format: in vivo, human; details: 90 mg IN+SOC
From the text: The S-STS CMCM (version 01/01/19) is a clinician-rated outcome measure which assesses SI/B on a standard 22-item scale, as well as multiple patient and clinician-rated items. The first 16 items are rated on a Likert-type scale ranging from “not at all” (0 units) to “extremely” (4 units), where select scoring (i.e., 4 specific items are scored based on the highest score on 2 of those items) yields a total score ranging from 0 units to 52 units. The final 6 items are used only when the patient misses a visit and is unable to complete the scale; if that missed visit is due to attempted or completed suicide, the possible maximum score is 100. The CMCM also yields 5 different single-item global assessments: 1) subject-rated likelihood of a suicide attempt; 2) subject-rated treatment needed; 3) clinician global severity of suicidal impulses, thoughts, and behaviors; 4) clinician judgment of suicide risk at this time and level of management needed for suicidality; and 5) clinician judgment of subject's likelihood of making a suicide attempt or of dying by suicide in the next 7 days.
The secondary endpoints are the change from baseline at 24 hours, as well as at Day 16, in the following: • (1) S-STS total score • (2) MADRS Total at Day 16 (only) • (3) Clinical Global Impression (CGI) of Severity for SI/B (CGIS-SI/B) and Change in SI/B (CGIC-SI/B) • (4) Patient Global Impression (PGI) of Severity for SI/B (PGIS-SI/B) and Change in SI/B (PGIC-SI/B • (5) S-STS Clinician-Rated Global Severity of Suicidal Impulses, Thoughts, and Behaviors • (6) S-STS Clinician judgment of subject's risk of a suicide attempt or death by suicide at this time • (7) S-STS Clinician judgment of subject's likelihood (risk) of making a suicide attempt or of dying by suicide in the next 7 days • (8) S-STS Subject-rated global severity of suicidal impulses, thoughts, and behavior • (9) S-STS Subject-rated treatment needed score • (10) MADRS item 10 response rate (response ≤3 units) • (11) MADRS Total response (total score ≥50% reduction from baseline) • (12) MADRS Total remission (total score ≤12 units)

[5] = tested on: adults with major depressive disorder (MDD) who are at imminent risk of suicide; experiment: Treatment-emergent adverse events, Phase 2 Part 1

CNC1(c2ccccc2Cl)CCCCC1=O (racemic) [intranasal racemic ketamine, 1:1 mixture of the two enantiomers of ketamine: (R)-2-(2-chlorophenyl)-2-(methylamino)cyclohexanone and (S)-2-(2-chlorophenyl)-2-(methylamino)cyclohexanone]
C-SSRS score (yes or no) for suicidal ideation ([1]; Subject 1): no | C-SSRS score (yes or no) for suicidal ideation ([1]; Subject 2): no | C-SSRS scores for suicidal ideation and suicidal behavior ([1]; both subjects, remainder of the study): no | anesthetic activity [2]: anesthetic activity | MOAA/S score ([3]; 90 mg IN+SOC, Subject 1, 15 minutes post-administration, pre-dose 5 units): 4 units | MOAA/S score ([3]; 90 mg IN+SOC, Subject 1, 30 minutes): 5 units | MOAA/S score ([3]; 90 mg IN+SOC, Subject 2, throughout the trial): 5 units | sedation ([3]; 90 mg IN+SOC, Subjects 1 and 2, in contrast to intranasal (S)-ketamine): little to no sedation | subjects with MOAA/S score of 5 units at all time-points ([3]; Day 1): 5 of 7 subjects | MOAA/S score (no one had a score below) ([3]; Day 1, 7 subjects): ≥ 4 units | S-STS CMCM Risk of Suicide at Within the Next 7 Days score ([4]; Subject 1, 24 hours post-administration, from 5 units, range 1-10): 2 units | S-STS CMCM Risk of Suicide at Within the Next 7 Days score ([4]; Subject 2, 24 hours post-administration, baseline 7 units): 1 unit | S-STS CMCM Risk of Suicide at Within the Next 7 Days score ([4]; the scores (Subjects 1 and 2), Day 4): 1 unit | S-STS CMCM Risk of Suicide at Within the Next 7 Days score ([4]; the scores (Subjects 1 and 2), Day 8): 0 units | serious adverse events ([5]; 90 mg IN+SOC, Part 1): no serious adverse events | severity of adverse events ([5]; 90 mg IN+SOC, Part 1): mild or moderate | subjects who experienced a treatment-emergent adverse event (TEAE) ([5]; 17 subjects): 47% | tolerability ([5]; Part 1): well tolerated | vital sign or blood pressure-related AEs ([5]; Part 1): no vital sign or blood pressure-related AEs were reported | TEAE feeling abnormal ([5]; n=2): 11.8% | TEAE nausea ([5]; n=2): 11.8% | TEAE sedation ([5]; n=2): 11.8% | TEAE dizziness ([5]; n=3): 17.6% | TEAE headache ([5]; n=4): 23.5%
